Measured values as given in BindingDB's records for PubMed 7562491 (Zeneca Pharmaceuticals, 1995).
“And” between values parts separate entries of the source, which are not always exact repeats. Equal entries are not always repeated.

Legend:
Substance-K receptor [1] = molecular target: T1, Substance-K receptor (Homo sapiens, UniProt P21452)
T1 sequence (P21452 whole entry): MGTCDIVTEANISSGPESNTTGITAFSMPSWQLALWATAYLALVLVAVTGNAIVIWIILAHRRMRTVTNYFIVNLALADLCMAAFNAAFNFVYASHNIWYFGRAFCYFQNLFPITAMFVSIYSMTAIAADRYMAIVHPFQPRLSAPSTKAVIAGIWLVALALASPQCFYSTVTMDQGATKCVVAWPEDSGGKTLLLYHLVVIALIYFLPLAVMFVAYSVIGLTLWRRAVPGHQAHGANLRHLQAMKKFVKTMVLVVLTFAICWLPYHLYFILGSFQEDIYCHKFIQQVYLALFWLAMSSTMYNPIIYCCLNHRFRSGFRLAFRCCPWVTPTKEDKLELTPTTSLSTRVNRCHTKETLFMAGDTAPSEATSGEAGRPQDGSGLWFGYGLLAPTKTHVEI

Substance-K receptor [2] = molecular target: T2, Substance-K receptor (Mesocricetus auratus, UniProt P51144)
T2 sequence (P51144 whole entry): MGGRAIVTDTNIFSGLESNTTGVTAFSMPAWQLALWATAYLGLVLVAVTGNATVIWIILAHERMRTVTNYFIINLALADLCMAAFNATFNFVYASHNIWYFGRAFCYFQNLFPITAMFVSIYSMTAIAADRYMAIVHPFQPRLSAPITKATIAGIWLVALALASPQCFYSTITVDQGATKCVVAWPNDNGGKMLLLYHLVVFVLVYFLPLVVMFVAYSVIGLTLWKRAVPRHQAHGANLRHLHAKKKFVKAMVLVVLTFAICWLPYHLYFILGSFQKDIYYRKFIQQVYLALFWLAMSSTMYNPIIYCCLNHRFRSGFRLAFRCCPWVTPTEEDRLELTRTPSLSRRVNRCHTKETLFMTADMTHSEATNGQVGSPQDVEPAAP

Substance-P receptor = Substance-P receptor (Cavia porcellus, UniProt P30547)
Sequence of Substance-P receptor (P30547 whole entry): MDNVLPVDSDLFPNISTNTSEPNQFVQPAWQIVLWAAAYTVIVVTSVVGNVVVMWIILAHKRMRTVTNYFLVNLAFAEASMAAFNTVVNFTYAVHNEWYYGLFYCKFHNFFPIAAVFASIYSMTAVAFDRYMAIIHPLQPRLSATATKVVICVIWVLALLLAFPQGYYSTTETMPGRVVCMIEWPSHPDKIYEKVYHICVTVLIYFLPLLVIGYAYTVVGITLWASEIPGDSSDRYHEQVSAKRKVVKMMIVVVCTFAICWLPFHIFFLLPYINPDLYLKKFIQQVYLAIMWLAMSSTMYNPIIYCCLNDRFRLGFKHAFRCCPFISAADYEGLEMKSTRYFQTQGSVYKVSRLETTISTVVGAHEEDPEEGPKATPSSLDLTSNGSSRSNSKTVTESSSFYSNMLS

Ki (Substance-K receptor [1]) [µM]	Ki (Substance-K receptor [2])	Ki (Substance-P receptor) [µM]	Structure (SMILES)
0.105	0.0022 µM and 0.002 µM	9.77	CC(N=O)C(=O)N1CCN(c2nc(Nc3ccc(Cl)cc3)c3c(n2)C(=O)N(C(C)C)C3)CC1 (configuration not stated) [ZM253,270]
0.188	0.018 µM and 0.017 µM		CC(C)N1Cc2c(Nc3ccc(Cl)cc3)nc(N3CCN(C(=O)Cc4[nH]c(=O)[nH]c4O)CC3)nc2C1=O [COMPOUND I]
0.187	0.041 µM and 0.039 µM		O=C1c2nc(N3CCOCC3)nc(Nc3ccc(Cl)cc3)c2CN1CCN1CCOCC1 [COMPOUND II]
